Source: PubChem BioAssay AID2060506 (Molecular Pharmacology Branch, DTP, NCI, 2025)

System: 598228-144-R-J1-PDC complex spheroid viability
Experiment: Anticancer human tumor 598228-144-R-J1-PDC patient-derived serous endometrial adenocarcinoma cell line growth inhibition [GQUAD]
Conditions: for IC50: curve of first compound; for viability, T/C: stronger effect = lower value
Summary of the method: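 Viability of tumor cells grown as complex spheroids with endothelial and stromal cells, exposed to drug combinations. Top concentration at or near clinical Cmax (else 10 microM), diluted in half-log increments.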

[1] = second compound 0.0316 µM, first compound 0.0316 µM
[2] = second compound 0.0316 µM, first compound 0.1 µM
[3] = second compound 0.0316 µM, first compound 0.316 µM
[4] = second compound 0.0316 µM, first compound 1 µM
[5] = second compound 0.0316 µM, first compound 3.16 µM
[6] = second compound 0.0316 µM, first compound 10 µM
[7] = second compound 0.1 µM, first compound 0.0316 µM
[8] = second compound 0.1 µM, first compound 0.1 µM
[9] = second compound 0.1 µM, first compound 0.316 µM
[10] = second compound 0.1 µM, first compound 1 µM
[11] = second compound 0.1 µM, first compound 3.16 µM
[12] = second compound 0.1 µM, first compound 10 µM
[13] = second compound 0.316 µM, first compound 0.0316 µM
[14] = second compound 0.316 µM, first compound 0.1 µM
[15] = second compound 0.316 µM, first compound 0.316 µM
[16] = second compound 0.316 µM, first compound 1 µM
[17] = second compound 0.316 µM, first compound 3.16 µM
[18] = second compound 0.316 µM, first compound 10 µM
[19] = second compound 1 µM, first compound 0.0316 µM
[20] = second compound 1 µM, first compound 0.1 µM
[21] = second compound 1 µM, first compound 0.316 µM
[22] = second compound 1 µM, first compound 1 µM
[23] = second compound 1 µM, first compound 3.16 µM
[24] = second compound 1 µM, first compound 10 µM
[25] = second compound 3.16 µM, first compound 0.0316 µM
[26] = second compound 3.16 µM, first compound 0.1 µM
[27] = second compound 3.16 µM, first compound 0.316 µM
[28] = second compound 3.16 µM, first compound 1 µM
[29] = second compound 3.16 µM, first compound 3.16 µM
[30] = second compound 3.16 µM, first compound 10 µM
[31] = second compound 10 µM, first compound 0.0316 µM
[32] = second compound 10 µM, first compound 0.1 µM
[33] = second compound 10 µM, first compound 0.316 µM
[34] = second compound 10 µM, first compound 1 µM
[35] = second compound 10 µM, first compound 3.16 µM
[36] = second compound 10 µM, first compound 10 µM
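Further: spheroids exposed to the agents for one week before reading.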
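Wherever viability, T/C is given: percent of vehicle DMSO control viability so 100% = untreated growth.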

## CC1COCCN1c1cc(C2(O)CC3CCC(C2)O3)c2cnn(-c3ccn[nH]3)c2n1 (centres undefined) + CN(C)c1ccc(Nc2c3ccc(NC(=O)CCN4CCCC4)cc3nc3cc(NC(=O)CCN4CCCC4)ccc23)cc1
Second compound 0.0316 µM
  IC50: 72.8 nM
Second compound 0.1 µM
  IC50: 90 nM
Second compound 0.316 µM
  IC50: 130 nM
Second compound 1 µM
  IC50: 162 nM
Second compound 3.16 µM
  IC50: 146 nM
Second compound 10 µM
  IC50: 46 nM
[1]
  viability, T/C: 58.7%
[2]
  viability, T/C: 45.8%
[3]
  viability, T/C: 34.9%
[4]
  viability, T/C: 32.9%
[5]
  viability, T/C: 25.2%
[6]
  viability, T/C: 13.9%
[7]
  viability, T/C: 60.5%
[8]
  viability, T/C: 49.3%
[9]
  viability, T/C: 34.3%
[10]
  viability, T/C: 32.7%
[11]
  viability, T/C: 28.2%
[12]
  viability, T/C: 12.7%
[13]
  viability, T/C: 74.8%
[14]
  viability, T/C: 49%
[15]
  viability, T/C: 36.5%
[16]
  viability, T/C: 37.1%
[17]
  viability, T/C: 28.6%
[18]
  viability, T/C: 15.4%
[19]
  viability, T/C: 68.5%
[20]
  viability, T/C: 44.6%
[21]
  viability, T/C: 44.3%
[22]
  viability, T/C: 35.6%
[23]
  viability, T/C: 36.1%
[24]
  viability, T/C: 12.4%
[25]
  viability, T/C: 61.8%
[26]
  viability, T/C: 55.9%
[27]
  viability, T/C: 35.1%
[28]
  viability, T/C: 39.6%
[29]
  viability, T/C: 25.6%
[30]
  viability, T/C: 9.44%
[31]
  viability, T/C: 58.5%
[32]
  viability, T/C: 34.5%
[33]
  viability, T/C: 27.6%
[34]
  viability, T/C: 23.7%
[35]
  viability, T/C: 26.6%
[36]
  viability, T/C: 3.21%

## CC1COCCN1c1cc(-c2ccnn2C)c2ccnc(-c3ccn[nH]3)c2n1 (centres undefined) + CN(C)c1ccc(Nc2c3ccc(NC(=O)CCN4CCCC4)cc3nc3cc(NC(=O)CCN4CCCC4)ccc23)cc1
Second compound 0.0316 µM
  IC50: 87.9 nM
Second compound 0.1 µM
  IC50: 88.2 nM
Second compound 0.316 µM
  IC50: 93.5 nM
Second compound 1 µM
  IC50: 721 nM
Second compound 3.16 µM
  IC50: 114 nM
Second compound 10 µM
  IC50: 58.1 nM
[1]
  viability, T/C: 86%
[2]
  viability, T/C: 45.6%
[3]
  viability, T/C: 40.3%
[4]
  viability, T/C: 43.3%
[5]
  viability, T/C: 49.2%
[6]
  viability, T/C: 45.2%
[7]
  viability, T/C: 79.7%
[8]
  viability, T/C: 46.1%
[9]
  viability, T/C: 45.5%
[10]
  viability, T/C: 40.5%
[11]
  viability, T/C: 42.4%
[12]
  viability, T/C: 43.5%
[13]
  viability, T/C: 76.3%
[14]
  viability, T/C: 51.3%
[15]
  viability, T/C: 32.7%
[16]
  viability, T/C: 43.9%
[17]
  viability, T/C: 45.5%
[18]
  viability, T/C: 34.6%
[19]
  viability, T/C: 70.6%
[20]
  viability, T/C: 63.8%
[21]
  viability, T/C: 50.5%
[22]
  viability, T/C: 50%
[23]
  viability, T/C: 45.7%
[24]
  viability, T/C: 38.9%
[25]
  viability, T/C: 74.6%
[26]
  viability, T/C: 49.6%
[27]
  viability, T/C: 40%
[28]
  viability, T/C: 40.6%
[29]
  viability, T/C: 43.4%
[30]
  viability, T/C: 25.9%
[31]
  viability, T/C: 73.5%
[32]
  viability, T/C: 29.5%
[33]
  viability, T/C: 20.5%
[34]
  viability, T/C: 29.7%
[35]
  viability, T/C: 27.6%
[36]
  viability, T/C: 14.9%
